Measurements as given in US10689354B2, “Aminoazole derivative” (Teijin Pharma Limited, priority 2015, dated 2020).

How the values were obtained:
[1] = target: T1, androgen receptor (AR-LBD) (Rattus norvegicus, UniProt P15207); experiment: Evaluation of androgen receptor affinity (PolarScreen Androgen Receptor Competitor Assay Kit, Red; fluorescence polarization); conditions: 22° C. for 5 hours, relative to binding rate of 1 μM DHT, read-out: AR affinity (pEC50) (converted)
T1 construct: 5 μL of 2×AR-LBD/Fluoromone AL Red Complex contained in the kit; purchased Invitrogen
T1 sequence (P15207 651-882 limits assumed): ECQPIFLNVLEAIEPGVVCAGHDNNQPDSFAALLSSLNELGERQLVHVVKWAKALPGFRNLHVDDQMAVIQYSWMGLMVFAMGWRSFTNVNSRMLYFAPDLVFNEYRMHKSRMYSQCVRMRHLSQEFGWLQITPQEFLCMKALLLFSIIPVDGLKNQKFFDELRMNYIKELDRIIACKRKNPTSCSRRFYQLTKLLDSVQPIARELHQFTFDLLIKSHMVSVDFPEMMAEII
Procedure, shortened: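 Duplicate wells; compound plus AR-LBD tracer complex incubated 22° C for 5 h, then FP measured. Effect compared with 1 μM DHT; 50%-effect concentration expressed as pEC50.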

human androgen receptor = target: T2, human androgen receptor (Homo sapiens, UniProt P10275); experiment: Reporter assay of an androgen receptor responsive sequence (luciferase, transiently transfected HEK293 cells); assay type: cell-based; conditions: 24 hours incubation, relative to activity of 100 nM DHT, read-out: AR transcriptive activity (pEC50) (converted)
T2 construct: expressed in transfected cells; host or cells: HEK293
T2 sequence (P10275 1-920): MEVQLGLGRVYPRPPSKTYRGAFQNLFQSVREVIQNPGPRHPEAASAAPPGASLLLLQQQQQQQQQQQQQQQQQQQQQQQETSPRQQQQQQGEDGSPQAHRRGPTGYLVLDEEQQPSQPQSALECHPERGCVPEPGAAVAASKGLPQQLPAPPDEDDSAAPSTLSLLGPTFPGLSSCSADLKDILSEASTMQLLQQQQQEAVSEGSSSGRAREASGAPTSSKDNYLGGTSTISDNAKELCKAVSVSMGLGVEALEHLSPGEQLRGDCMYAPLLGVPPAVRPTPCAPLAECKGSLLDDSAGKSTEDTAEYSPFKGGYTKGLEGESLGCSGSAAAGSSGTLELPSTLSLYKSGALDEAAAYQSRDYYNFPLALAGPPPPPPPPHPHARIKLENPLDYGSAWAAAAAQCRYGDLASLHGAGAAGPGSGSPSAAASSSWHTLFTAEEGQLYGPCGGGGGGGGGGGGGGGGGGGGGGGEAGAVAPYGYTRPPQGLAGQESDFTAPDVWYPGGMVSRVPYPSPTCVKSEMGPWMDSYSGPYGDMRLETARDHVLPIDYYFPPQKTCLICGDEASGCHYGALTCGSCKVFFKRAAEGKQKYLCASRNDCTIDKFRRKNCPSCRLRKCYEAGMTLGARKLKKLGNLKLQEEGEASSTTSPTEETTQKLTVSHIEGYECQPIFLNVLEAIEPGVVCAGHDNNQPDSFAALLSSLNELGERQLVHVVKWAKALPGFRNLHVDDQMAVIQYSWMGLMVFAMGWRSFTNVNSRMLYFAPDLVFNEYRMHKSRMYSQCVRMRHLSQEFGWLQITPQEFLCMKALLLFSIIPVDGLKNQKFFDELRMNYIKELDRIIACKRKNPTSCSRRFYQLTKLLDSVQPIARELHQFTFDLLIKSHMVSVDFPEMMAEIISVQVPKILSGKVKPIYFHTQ
Procedure, shortened: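 Agonism scored as pEC50, fitted by 4-parameter curve against the response to 100 nM DHT, from dual-luciferase readout after 24 h compound treatment. Cells were HEK293 co-transfected (3 h) with human AR expression vector, androgen-responsive firefly reporter and Renilla control, in charcoal-stripped serum.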

| Structure (SMILES) | EC50 [1] [nM] | EC50 (human androgen receptor) [nM] |
| --- | --- | --- |
| Cc1sc(N(Cc2cccc(N)c2)c2ccc(C#N)cc2)nc1C(=O)NS(C)(=O)=O [Example 203, 2-[N-[(3-aminophenyl)methyl]-4-cyano-anilino]-5-methyl-N-methylsulfonyl-thiazole-4-carboxamide] | 316 | 631 |
| Cc1sc(N(Cc2cc(C(F)(F)F)ccc2Cl)c2ccc(C#N)cc2)nc1C(=O)NS(C)(=O)=O [Compound 417, 2-[N-[[2-chloro-5-(trifluoromethyl)phenyl]methyl]-4-cyano-anilino]-5-methyl-N-methylsulfonyl-thiazole-4-carboxamide] | 316 | > 10000 |
| COCCCS(=O)(=O)NC(=O)c1nc(N(Cc2ccc(OC(F)F)cc2)c2ccc(C#N)cc2)sc1C [Example 165, 2-[4-cyano-N-[[4-(difluoromethoxy)phenyl]methyl]anilino]-N-(3-methoxypropylsulfonyl)-5-methyl-thiazole-4-carboxamide] | 50.1 | 158 |
| Cc1sc(N(CCC2CCCCC2)Cc2ccc(OC(F)(F)F)cc2)nc1C(=O)NS(=O)(=O)Cc1cccc(F)c1 [Compound 735, 2-[2-cyclohexylethyl-[[4-(trifluoromethoxy)phenyl]methyl]amino]-N-[(3-fluorophenyl)methylsulfonyl]-5-methyl-thiazole-4-carboxamide] | 1000 | > 10000 |
| COCCCS(=O)(=O)NC(=O)c1nc(N(Cc2ccc(C(F)(F)F)nc2)c2ccc(C#N)cc2)sc1C [Compound 164, 2-[4-cyano-N-[[6-(trifluoromethyl)-3-pyridyl]methyl]anilino]-N-(3-methoxypropylsulfonyl)-5-methyl-thiazole-4-carboxamide] | 251 | 631 |
| Cc1oc(N(Cc2ccc(Cl)cc2)c2ccc(C#N)cc2)nc1C(=O)NS(C)(=O)=O [Example 286, 2-[N-[(4-chlorophenyl)methyl]-4-cyano-anilino]-5-methyl-N-methylsulfonyl-oxazole-4-carboxamide] | 501 | 316 |
| Cc1sc(N(Cc2ccc(C#N)cc2)c2ccc(C#N)cc2)nc1C(=O)NS(C)(=O)=O [Compound 10, 2-[4-cyano-N-[(4-cyanophenyl)methyl]anilino]-5-methyl-N-methylsulfonyl-thiazole-4-carboxamide] | 126 | 1000 |
| Cc1sc(N(Cc2ccccc2)c2ccc(C#N)cc2)nc1C(=O)NS(=O)(=O)CS(C)(=O)=O [Compound 382, 2-(N-benzyl-4-cyano-anilino)-5-methyl-N-(methylsulfonylmethylsulfonyl)thiazole-4-carboxamide] | 79.4 | > 10000 |
| Cc1sc(N(Cc2ccc(N3CCCC3=O)cc2)c2ccc(C#N)cc2)nc1C(=O)NS(C)(=O)=O [Compound 589, 2-[4-cyano-N-[[4-(2-oxopyrrolidin-1-yl)phenyl]methyl]anilino]-5-methyl-N-methylsulfonyl-thiazole-4-carboxamide] | 1000 | > 10000 |
| Cc1nc(CN(CCc2ccc(Cl)cc2)c2nc(C(=O)NS(C)(=O)=O)c(C)o2)cs1 [Compound 546, 2-[2-(4-chlorophenyl)ethyl-[(2-methylthiazol-4-yl)methyl]amino]-5-methyl-N-methylsulfonyl-oxazole-4-carboxamide] | 200 | 1580 |
| CCc1oc(N(Cc2ccc(Br)cc2)c2ccc(C#N)cc2)nc1C(=O)NS(C)(=O)=O [Compound 653, 2-[N-[(4-bromophenyl)methyl]-4-cyano-anilino]-5-ethyl-N-methylsulfonyl-oxazole-4-carboxamide] | 50.1 | 158 |
| Cc1oc(N(CCc2ccc(Cl)cc2)Cc2ccc(C(F)(F)F)nc2)nc1C(=O)NS(C)(=O)=O [Compound 551, 2-[2-(4-chlorophenyl)ethyl-[[6-(trifluoromethyl)-3-pyridyl]methyl]amino]-5-methyl-N-methylsulfonyl-oxazole-4-carboxamide] | 39.8 | 501 |
| Cc1sc(N(CC2Cc3ccccc3C2)c2ccc(C#N)cc2)nc1C(=O)NS(C)(=O)=O [Compound 454, 2-[4-cyano-N-(indan-2-ylmethyl)anilino]-5-methyl-N-methylsulfonyl-thiazole-4-carboxamide] | 50.1 | 251 |
| Cc1sc(N(Cc2ccc(C3CC3)cc2)c2ccc(C#N)cc2)nc1C(=O)NS(C)(=O)=O [Compound 588, 2-[4-cyano-N-[(4-cyclopropylphenyl)methyl]anilino]-5-methyl-N-methylsulfonyl-thiazole-4-carboxamide] | 31.6 | 200 |
| Cc1oc(N(CCC2CCCC2)c2ccc(C#N)cc2)nc1C(=O)NS(C)(=O)=O [Compound 622, 2-[4-cyano-N-(2-cyclopentylethyl)anilino]-5-methyl-N-methylsulfonyl-oxazole-4-carboxamide] | 79.4 | > 10000 |
| CCc1oc(N(Cc2cc3ccccc3s2)c2ccc(C#N)cc2)nc1C(=O)NS(C)(=O)=O [Compound 626, 2-[N-(benzothiophen-2-ylmethyl)-4-cyano-anilino]-5-ethyl-N-methylsulfonyl-oxazole-4-carboxamide] | 15.8 | 79.4 |
| Cc1sc(N(Cc2ccc(OC(F)(F)F)cc2)c2ccc(C#N)cc2)nc1C(=O)NS(=O)(=O)Cc1cccnc1 [Compound 121, 2-[4-cyano-N-[[4-(trifluoromethoxy)phenyl]methyl]anilino]-5-methyl-N-(3-pyridylmethylsulfonyl)thiazole-4-carboxamide] | 25.1 | 50.1 |
| COCCCS(=O)(=O)NC(=O)c1nc(N(Cc2ccc(Br)cc2)c2ccc(C#N)cc2)sc1C [Example 191, 2-[N-[(4-bromophenyl)methyl]-4-cyano-anilino]-N-(3-methoxypropylsulfonyl)-5-methyl-thiazole-4-carboxamide] | 31.6 | 50.1 |
| COc1cccc(CN(CCc2ccc(OC(F)(F)F)cc2)c2nc(C(=O)NS(C)(=O)=O)c(C)s2)n1 [Compound 505, 2-[(6-methoxy-2-pyridyl)methyl-[2-[4-(trifluoromethoxy)phenyl]ethyl]amino]-5-methyl-N-methylsulfonyl-thiazole-4-carboxamide] | 39.8 | 2000 |
| COCCCS(=O)(=O)NC(=O)c1nc(N(Cc2cc(OC(F)F)ccc2F)c2ccc(C#N)cc2)sc1C [Compound 521, 2-[4-cyano-N-[[5-(difluoromethoxy)-2-fluoro-phenyl]methyl]anilino]-N-(3-methoxypropylsulfonyl)-5-methyl-thiazole-4-carboxamide] | 31.6 | 1260 |
| CS(=O)(=O)NC(=O)c1nc(N(Cc2cccc(F)c2)c2ccc(C#N)cc2)sc1Br [Example 243, 5-bromo-2-[4-cyano-N-[(3-fluorophenyl)methyl]anilino]-N-methylsulfonyl-thiazole-4-carboxamide] | 50.1 | 63.1 |
| Cc1oc(N(CCc2ccc(Cl)cc2)Cc2ccccc2)nc1C(=O)NS(C)(=O)=O [Example 220, 2-[benzyl-[2-(4-chlorophenyl)ethyl]amino]-5-methyl-N-methylsulfonyl-oxazole-4-carboxamide] | 39.8 | 316 |
| CS(=O)(=O)NC(=O)c1nc(N(Cc2cccc(OC(F)(F)F)c2)c2ccc(C#N)cc2)sc1Cl [Example 273, 5-chloro-2-[4-cyano-N-[[3-(trifluoromethoxy)phenyl]methyl]anilino]-N-methylsulfonyl-thiazole-4-carboxamide] | 31.6 | 63.1 |
| Cc1sc(N(CCc2ccc(OC(F)F)cc2)Cc2ccc(F)cc2)nc1C(=O)NS(C)(=O)=O [Compound 159, 2-[2-[4-(difluoromethoxy)phenyl]ethyl-[(4-fluorophenyl)methyl]amino]-5-methyl-N-methylsulfonyl-thiazole-4-carboxamide] | 63.1 | 398 |
